Data on 12 compounds can be found in US5314880A, “Benzimidazole derivatives” (British Bio-technology Limited, priority 1989, dated 1994).

T1 sequence (P25105 whole entry): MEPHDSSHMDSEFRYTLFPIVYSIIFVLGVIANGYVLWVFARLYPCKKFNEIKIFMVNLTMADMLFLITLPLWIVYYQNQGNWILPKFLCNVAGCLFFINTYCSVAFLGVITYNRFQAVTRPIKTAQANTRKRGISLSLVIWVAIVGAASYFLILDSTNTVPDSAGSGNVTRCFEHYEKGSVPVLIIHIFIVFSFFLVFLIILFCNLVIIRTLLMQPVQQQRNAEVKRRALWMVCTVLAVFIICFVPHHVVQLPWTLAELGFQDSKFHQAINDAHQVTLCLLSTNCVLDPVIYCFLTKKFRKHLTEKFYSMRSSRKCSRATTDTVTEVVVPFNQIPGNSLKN

This test addresses T1, PAF receptor (human platelet plasma membrane) (Homo sapiens, UniProt P25105).
T1 construct: Platelet concentrates were obtained from a hospital blood bank; from tissue; host or cells: human platelets (hospital blood bank concentrates), lysed platelet membranes
The test is described as follows: Inhibition of ^3 H-PAF receptor binding to human platelet plasma membrane. The conditions noted are these: ^3 H-PAF 0.5 nM, 0° C., 1 hour. As to the method: Compounds of general formula I inhibit PAF induced functions in both the cellular and tissue levels by changing the PAF binding to its specific receptor site. The ability of compounds of general formula I to inhibit platelet aggregation in human platelet-rich plasma, and to inhibit the binding of PAF to its specific receptor binding site on human platelet plasma membranes was measured in the assay described in the pharmacology example.
The inhibition of ^3 H-PAF binding to human platelet plasma membrane by compounds of general formula I was determined by isotopic labelling and filtration techniques. Platelet concentrates were obtained from a hospital blood bank. These platelet concentrates (500-2500 ml.) were centrifuged at 800 rpm for 10 minutes in a SORVALL RC3B centrifuge to remove the red blood cells present. (The word SORVALL is a trade mark.) The supernatant was subsequently centrifuged at 3,000 rpm in a SORVALL RC3B centrifuge to pellet the platelets present. The platelet rich pellets were resuspended in a minimum volume of buffer (150 Mm NaCl, 10 mM Tris, 2 mM EDTA, pH 7.5) and layered onto Ficoll-Paque gradients, 9 ml platelet concentrate to 2 ml Ficoll, and centrifuged at 1,900 rpm for 15 minutes in a SORVALL RT6000 centrifuge. This step removes the residual red blood cells and other nonspecific material such as lymphocytes from the preparation. The platelets which form a band between the plasma and the Ficoll were removed, resuspended in the above buffer and centrifuged at 3,000 rpm for 10 minutes in a SORVALL RT6000 centrifuge. The pelleted platelets were resuspended in buffer (10 mM Tris, 5 mM MgCl2, 2 mM EDTA, pH 7.0), snap-freezed in liquid N2 and allowed to thaw slowly at room temperature in order to lyse the platelets. The latter step was repeated at least 3 times to ensure proper lysis. The lysed platelets were centrifuged at 3,000 rpm for 10 minutes in a SORVALL RT6000 centrifuge and resuspended in buffer. The latter step was reseated twice in order to remove any cytoplasmic proteins which may hydrolyse the platelet activating factor (PAF) receptor. The prepared platelet membranes may be stored at -70° C. After thawing the prepared membranes were centrifuged in a SORVALL RT6000 at 3,000 rpm for 10 minutes and resuspended in assay buffer.
The assay was conducted by preparing a series of a Tris-buffered solutions of the selected antagonist of predetermined concentrations. Each of these solutions contained ^3 H-PAF (0.5 nM; 1-O-(^3 H]octadecyl-2-acetyl-sn-glycero-3-phosphoryl choline with a specific activity of 132 Ci/mmol), […], a known amount of the test antagonist, and a sufficient amount of Tris-buffer solution (10 mM Tris, 5 mM MgCl2, pH 7.0, 0.25% BSA) to make the final volume 1 ml. Incubation was initiated by the addition of 100 μg of the isolated membrane fraction to each of the above solutions at 0° C. Two control samples, one which ([…]) contained all the ingredients described above except the antagonist and the other (C2) contains C1 plus a 1000-fold excess of unlabelled PAF, were also prepared and incubated simultaneously with the test samples. After 1 hour incubation, each solution was filtered rapidly under vacuo through a WHATMAN GF/C glass fiber falter in order to separate unbound PAF from bound PAF. (The word WHATMAN is a trade mark.) The residue in each case was rapidly washed 4 times with 5 ml cold (4° C.) Tris-buffer solution. Each washed residue was dried under vacuum on a sampling manifold and placed into vials containing 20 ml of OPTIPHASE MP scintillation fluid and the radioactivity counted in a liquid scintillation counter. (The word OPTIPHASE is a trade mark.) Defining the counts for total binding with antagonist from a test sample as "TBA"; the counts for total binding from the control sample C1 as "TB"; and the counts for nonspecific binding from the control sample C2 as "NSB", the percent inhibition of each test antagonist can be determined by the following equation. […]
A word on the IC50: it is the midpoint of a concentration-inhibition curve. High values mean a need for much substance, low ones inhibition by little substance. Compound `Cc1nc2ccccc2n1Cc1ccc(S(=O)(=O)N2CCC[C@H]3CCCC[C@@H]32)cc1` (relative stereo) [Example 92, trans-Decahydroquinolinyl 4-(1H-2-methylbenzimidazylmethyl) benzenesulphonamide] yielded a half-inhibitory concentration (IC50) of 700 nM. To `CCN(C(=O)c1ccc(Cn2c(C)nc3ccccc32)cc1)C1CCCCC1` [Example 21, N-Cyclohexyl-N-ethyl 4-(1H-2-methylbenzimidazylmethyl)benzamide] belongs 500 nM; to `Cc1nc2ccccc2n1Cc1ccc(C(=O)N(C2CCCCC2)C2CCCCC2)cc1` [Example 22, N,N-Dicyclohexyl 4-(1H-2-methylbenzimidazylmethyl)benzamide], 650 nM. `CSc1nc2ccccc2n1Cc1ccc(C(=O)N(C)C2CCCCC2)cc1` [Example 26, N-Cyclohexyl-N-methyl 4-(1H-2-thiomethylbenzimidazylmethyl) benzamide] returned an IC50 of 3000 nM. With `Cc1nc2ccccc2n1Cc1ccc(S(=O)(=O)N(C)C2CCCCC2)cc1` [Example 41, N-Cyclohexyl-N-methyl 4-(1H-2-methylbenzimidazylmethyl) benzenesulphonamide], the IC50 stood at 300 nM.

`Cc1nc2cc([N+](=O)[O-])ccc2n1Cc1ccc(S(=O)(=O)N(C)C2CCCCC2)cc1` [Example 44, N-Cyclohexyl-N-methyl 4-(1H-2-methyl-5-nitrobenzimidazylmethyl) benzenesulphonamide] yielded a concentration for half-maximal inhibition (IC50) of 5000 nM.

For `CCN(C1CCCCC1)S(=O)(=O)c1ccc(Cn2c(C)nc3ccccc32)cc1` [Example 49, N-Cyclohexyl-N-ethyl 4-(1H-2-(2-methyl)benzimidazylmethyl) benzenesulphonamide], the half-inhibitory concentration (IC50) is 500 nM. In the case of `Cc1nc2ccccc2n1Cc1ccc(S(=O)(=O)N2CCCCC2)cc1` [Example 50, Piperidinyl 4-(1H-2-methylbenzimidazylmethyl)benzenesulphonamide], the concentration for half-maximal inhibition (IC50) was determined as 2000 nM. To `Cc1nc2ccccc2n1Cc1ccc(NC(=O)C2CCCCC2)cc1` [Example 58, N-4-(1H-2-Methylbenzimidazylmethyl)benzyl cyclohexylamide] belongs 2000 nM; to `Cc1nc2ccccc2n1Cc1ccc(N(C)P(=O)(c2ccccc2)c2ccccc2)cc1` [Example 59], 500 nM; to `CSC(c1ccc(C(=O)N(C)C2CCCCC2)cc1)n1cnc2ccccc21` (stereo not drawn) [Example 63, N-Cyclohexyl-N-methyl 4-(1H-benzimidazylthiomethylmethyl) benzamide], 500 nM. As for `Cc1nc2ccccc2n1Cc1ccc(S(=O)(=O)NCc2ccccc2Cl)cc1` [Example 80, N-2-Chlorobenzyl 4-(1H-2-methylbenzimidazylmethyl) benzenesulphonamide], the figure is 900 nM.
